Assay [1] deals with SOD-1 overexpression in Drosophila motor neurons. The experiment in a line: SOD-1 Drosophila model of ALS, larval turning read-out (Example 24). Type of assay: in vivo. To be noted: 1 microMolar, SOD-1 (wild-type and G85R) overexpression, vs. DMSO vehicle. As for the experimental part: Procedure: Following the method of Zarnescu and coworkers (Human Molecular Genetics, 24(6), 1741-1754, 2015). UAS SOD-1 male Drosophila flies were crossed with D42-Gal4 female virgins on fly food containing either DMSO or 1% Compound 118 in dimethyl sulfoxide (DMSO). For DMSO controls, the same volume of DMSO as the corresponding Compound 118 concentration was added. Bromophenol blue was added to a final concentration of around 0.02% to ensure homogeneity. Crosses were made on drug food with three female virgins and two males in each vial and were maintained at 25° C. unless noted. The parents were discarded after 5-7 days and then the vials were screened for adult progeny with straight wings from Day 14 to Day 25. All adults were screened for SOD-1 expression. Read-outs involved the larval turning assay.
SOD-1^wt=Wild-type, SOD1^G85R=Diseases associated G85R mutant expressed in motor neurons. […], ***p<0.001 as compared to DMSO vehicle.

The test system of another assay is SNL rats. The experiment in a line: Spinal nerve ligation (SNL) rat model, mechanical allodynia by von Frey paw withdrawal threshold (Example 17). The conditions noted are these: 160 mg/Kg PO once per day for 5 days, 60 min after dosing, vs. vehicle control, p<0.05. It is filed as in vivo, Sprague Dawley rats. As for the experimental part:
A total of 90 male Sprague Dawley rats (200-225 g) from Envigo (Indianapolis, IN) were used in the study. The 90 rats were assembled into four groups that would be orally dosed (PO) with vehicle, Gabapentin and Compound 118 as follows: • Group 1=Sham+Vehicle, n=20 rats • Group 2=SNL+Vehicle, n=40 rats • Group 3=SNL+Compound 118 (160 mg/Kg), n=20 rats • Group 4=SNL+Gabapentin (100 mg/Kg), n=10 rats
Under general anesthesia with continuous inhalation of isoflurane, surgery was performed with aseptic procedures. The skin at the area of the lower lumber and sacral level of the rat was shaved and disinfected with betadine and alcohol. A left longitudinal incision at the level next to the vertebral column was made and the left paraspinal muscles were separated. The transverse process of L6 was removed and nearby connective tissue cleaned to expose L5 and L6 spinal nerves. After the nerves were isolated and clearly visualized, 4-0 silk threads were used to ligate the left L5. The muscles were sutured with 4-0 silk threads and the wound closed by staples. […] Each rat was monitored until awake and moving freely around the recovery chamber. […]
The mechanical allodynia of the rodents were measured by applying von Frey (VF) filaments (Stoelting, Wood Dale, IL) of ascending bending force to the plantar surface of the hind paws, ipsilateral and contralateral to the surgical manipulation. […]

A further assay concerns Caspase 3. The experiment in a line: Caspase 3 protein level in dorsal root ganglion of SNL rats via Western blotting (Examples 10, 17). To be noted: Left DRG of SNL rats, 160 mg/Kg PO for 5 days, vs. Vehicle treated SNL rats, unpaired t-test. It is filed as in vivo, Sprague Dawley rats. From the text: Western blotting is a widely used analytical technique used to detect specific proteins in a sample of tissue homogenate or extract. Before one can perform Western blotting one must develop a technique for extracting the protein to be measured from the target tissue. Below is an example of the measurement of Caspase 3 from rat dorsal root ganglion (DRG) using Western blotting.
Protein Extraction Preparation: Frozen DRG tissue samples were homogenized in a radioimmunoprecipitation assay (RIPA) buffer (75 μl per sample) using a handheld pestle homogenizer, 30 seconds on ice. Samples were cleared by centrifugation at 14,000 rpm for 15 minutes at 4° C. Supernatants were collected and protein amount was determined using Bio-Rad DC protein kit.
Western Blotting: Protein samples were denatured in Laemmli buffer/2-mercaptoethanol for 5 minutes at 95 C. Denatured protein samples were separated by SDS-PAGE. After electrophoresis, proteins were transferred from gel to LFP-PVDF membranes by electroblotting. […]
Antibody binding was detected using the ECL Plus Western Chemifluorescence Detection Kit (Cat #32132, ThermoFisher Scientific). […] The scanned images from the Typhoon were analyzed with ImageQuantTL software version 7.0 (GE Healthcare Bioscience, Piscataway, NJ). Band intensities were determined using the Rolling Ball method. […]

Consider one compound from patent US12589090B2, “Compounds and methods for the treatment of degenerative disorders” (Aquilus Pharmaceuticals, Inc., priority 2019, dated 2026).

Entries after “also recorded” stand apart in the source; their conditions may differ.

For the compound `[2H]C([2H])([2H])c1ccc(C#Cc2ccc(S(=O)(=O)N[C@H](Cc3c[nH]c4ccccc34)C(=O)O)s2)cc1` [Compound 118, (R)-3-(1H-Indol-3-yl)-2-[5-(4-trideuteromethyl-phenylethynyl)-thiophene-2-sulfonylamino]-propionic acid-(D3, 98%)], the “locomotive defects via larval turning times” value in assay [1] is recorded as “able to mitigate locomotive defects”. For the same compound, the “mechanical allodynia (ipsilateral paw withdrawal threshold, von Frey)” value with SNL rats is recorded as “reduce mechanical allodynia in a statistical manner; also recorded: statistically significant decrease in mechanical allodynia”. In the assay with Caspase 3, the “caspase 3 protein level in dorsal root ganglion (Western blotting)” value was “significant decrease of caspase 3 protein; also recorded: decrease in the caspase-3 protein levels”.
